Assay results reported in patent US20240261310A1, “APPLICATION OF ALGINATE OLIGOSACCHARIDES” (HAITANG (JIANGSU) BIOTECHNOLOGY COMPANY, LTD., priority 2021, published 2024).

Tests used:
Type in all cases: in vivo
[1] = tested on: mice with AKI induced by endotoxin phosphorus lipopolysaccharides (LPS); assay: Mouse acute kidney injury induced by endotoxin phosphorus lipopolysaccharides (LPS); conditions: for level of serum creatinine: C57/B16 mice, LPS 15 mg/kg i.p., 24 h; for level of serum creatinine / gene expressions of inflammatory factors (IL-1β, IL-18, TNF-α, MCP-1) / mRNA levels of Kim-1 and NGAL in kidney tissues / protein expressions of renal inflammatory factors (TLR4, p-NFκB/NFκB, pro-IL-1β/IL-1β): 0.1 g/kg/day intragastric; for gene expressions of inflammatory factors (IL-1β, IL-18, TNF-α, MCP-1) / mRNA levels of Kim-1 and NGAL in kidney tissues / protein expressions of renal inflammatory factors (TLR4, p-NFκB/NFκB, pro-IL-1β/IL-1β): renal cortex, vs LPS group; for gene expressions of inflammatory factors (IL-1β, IL-18, TNF-α, MCP-1) / mRNA levels of Kim-1 and NGAL in kidney tissues: Qpcr; for protein expressions of renal inflammatory factors (TLR4, p-NFκB/NFκB, pro-IL-1β/IL-1β): western blotting
Excerpt: (§1) The kidney injury induced by treatment with endotoxin phosphorus lipopolysaccharides is a classical and standard animal model that simulates the acute kidney injury induced by clinical infection. With the mouse endotoxin phosphorus lipopolysaccharide model, we administered the alginate oligosaccharides with different uniform degrees of polymerization and a mixture thereof, and then compared with a blank group and a non-administrated model group to investigate the therapeutic effects of the individual alginate oligosaccharides with a uniform degree of polymerization.
24 male C57/B16 mice of 22-28 grams were selected. […] LPS was used for modeling to induce the occurrence of sepsis-associated acute kidney injury. During modeling, each model group was intraperitoneally injected with LPS at 15 mg/kg, and the control group was intraperitoneally injected with the same volume of normal saline. Immediately after modeling, the mice were put back into the mouse metabolic cages for observation, in which the weight, food intake, water intake and urine output of the mice were measured. The mice were sacrificed 24 hours later for sampling, and urine was collected. […] Then, the serum creatinine in the mice was determined by using the creatinine assay kit from Nanjing Jiancheng, with the results shown in FIG. 23. During sampling, the kidneys on both sides were isolated, the cortex and inner medulla of each kidney were isolated, and the cortex was stored in trizol. When in use, mRNAs in the cortex were extracted using the trizol method, and the mRNA expressions of AKI biomarkers (KIM-1 and NGAL, with the results shown in FIG. 24) and inflammatory factors (IL-1β, IL-18, TNF-α, and MCP-1, with the results shown in FIG. 25) were detected by the Qpcr method. A tissue lysis buffer was added to homogenize the kidneys by ultrasound, the total protein was then extracted, and the inflammatory factors (p-NFκB/NFκB, pro-IL-1β/IL-1β) in the renal cortex tissues were detected by western blotting. The experimental data were statistically analyzed by one-way ANOVA.
The same experimental method was used as that for the alginate disaccharides. The serum creatinine in the mice was determined by using the creatinine assay kit from Nanjing Jiancheng, with the results shown in FIG. 27. During sampling, the kidneys on both sides were isolated, the cortex and inner medulla of each kidney were isolated, and the cortex was stored in trizol. When in use, mRNAs in the cortex were extracted using the trizol method, and the mRNA expressions of AKI biomarkers (KIM-1 and NGAL, with the results shown in FIG. 28) and inflammatory factors (IL-1β, IL-18, TNF-α, and MCP-1, with the results shown in FIG. 29) were detected by the Qpcr method. A tissue lysis buffer was added to homogenize the kidneys by ultrasound, the total protein was then extracted, and the inflammatory factors (p-NFκB/NFκB, pro-IL-IP/IL-1β) in the renal cortex tissues were detected by western blotting. In addition, the animals were sacrificed after the last blood collection, the kidneys were fixed in 4% formaldehyde solution, and subjected to conventional paraffin embedding, sectioning, and HE staining to observe the general kidney tissue morphology under a light microscope. The experimental data were statistically analyzed by one-way ANOVA.
The same experimental method was used as that for the alginate disaccharides and alginate trisaccharides. […] The serum creatinine in the mice was determined by using the creatinine assay kit from Nanjing Jiancheng, with the results shown in FIG. 32. During sampling, the kidneys on both sides were isolated, the cortex and inner medulla of each kidney were isolated, and the cortex was stored in trizol.

[2] = tested on: rats with AKI induced by renal ischemia-reperfusion (I/R) injury; assay: Rat acute kidney injury (AKI) induced by ischemia-reperfusion (I/R); conditions: for level of serum creatinine / 24-hour urine output: Sprague Dawley rats, intragastric; for level of serum creatinine: 24 h after I/R; for mRNA levels of Kim-1 and NGAL in kidney tissues / inflammatory factors in kidney tissues (TLR4, p-NFκB/NFκB, pro-IL-1β/IL-1β): renal cortex; for mRNA levels of Kim-1 and NGAL in kidney tissues: 0.1 g/kg/day intragastric; for inflammatory factors in kidney tissues (TLR4, p-NFκB/NFκB, pro-IL-1β/IL-1β): western blotting, doses 0.01, 0.05, 0.1 g/kg/day, dose dependent
Excerpt: Ischemia-reperfusion induced kidney injury is a classical animal model that simulates the acute kidney injury caused by clinical hypoperfusion. With the rat ischemia-reperfusion model, the author of the invention administered the alginate oligosaccharides with a uniform degree of polymerization as prepared by Example 1-3 and a mixture thereof, and then carried out comparison with a blank group and a non-administrated model group to investigate the therapeutic effects of the several alginate oligosaccharides with a uniform degree of polymerization.
30 male Sprague Dawley rats (purchased from the Laboratory Animal Center of Sun Yat-sen University) of 220-250 grams were selected. Before treatment, the 24-hour urine output was collected and measured without abnormalities. The rats to be modeled were randomly divided into the following groups: a sham group, a model group, and three alginate disaccharide groups with the doses of 0.01 g/kg/day, 0.05 g/kg/day and 0.1 g/kg/day respectively (6 rats in each group). In the present invention, the alginate disaccharide is abbreviated as “AOS2”. Intragastric administration was adopted, and rats in the model group and the sham group were all fed by gavage with the same volume of normal saline. On the day of operation, the rats were anesthetized intraperitoneally with 3% pentobarbital sodium and subjected to routine skin disinfection. The abdomen was sectioned to expose the left and right kidneys. In the sham group, the kidneys were only examined, and then the incision was sutured layer by layer to end the operation. In the model group and the modeled administration group, large bulldog clamps were used for occlusion of the renal pedicles on both sides, then the kidneys were recovered in place, and the incision was covered with gauze and dropwise added with a small amount of normal saline for rehydration. After 45 minutes, the bulldog clamps on both sides were released, and the incision was sutured layer by layer to end the operation. After operation, the rats were placed on a heating pad at 37° C. to wait for resuscitation, and then placed back into metabolic cages, in which the weight, food intake, water intake and urine output of the rats were measured. The rats were routinely fed after operation and sacrificed 24 hours later for sampling. […] Then, the serum creatinine in the rats was determined by using the creatinine assay kit from Nanjing Jiancheng, with the results shown in FIG. 10. During sampling, the kidneys on both sides were isolated, the cortex and inner medulla of each kidney were isolated, and the cortex was stored in trizol. When in use, mRNAs in the cortex were extracted using the trizol method, and the mRNA expressions of AKI biomarkers (KIM-1 and NGAL) were detected. A tissue lysis buffer was added to homogenize the kidneys by ultrasound, the total protein was then extracted, and the inflammatory factors (p-NFκB/NFκB and pro-IL-1β/IL-1β) in the renal cortex tissues were detected by western blotting. The experimental data were statistically analyzed by one-way ANOVA.
With the same experimental method as that for the alginate disaccharides, the effect of alginate trisaccharides against the rat acute kidney injury induced by ischemia-reperfusion was investigated. In the present invention, the alginate trisaccharide is abbreviated as “AOS3”. The serum creatinine in the rats was determined by using the creatinine assay kit from Nanjing Jiancheng, with the results shown in FIG. 14. During sampling, the kidneys on both sides were isolated, the cortex and inner medulla of each kidney were isolated, and the cortex was stored in trizol. When in use, mRNAs in the cortex were extracted using the trizol method, and the mRNA expression of AKI biomarkers (KIM-1 and NGAL) was detected. […]

[3] = tested on: mice with AKI induced by cisplatin; assay: Mouse acute kidney injury induced by cisplatin
Excerpt: as §1, with “Cisplatin-induced” for “The”, “injury” for “injury induced by treatment with endotoxin phosphorus lipopolysaccharides”, “drugs that cause nephrotoxicity.” for “clinical infection.”, “cisplatin” for “endotoxin phosphorus lipopolysaccharide”
30 male C57BL/J6 mice of 22-28 grams were selected. Before treatment, the 24-hour urine output was collected and measured without abnormalities. The mice to be modeled were randomly divided into the following groups: a control group, a model group, a model+low-dose administration group (AOS3 at 0.05 g/kg/day), a model+medium-dose administration group (AOS3 at 0.1 g/kg/day), and a model+high-dose administration group (AOS3 at 0.2 g/kg/day), with 6 mice in each group. The alginate trisaccharides was intragastrically administered, and the model group and the control group were all fed by gavage with the same volume of normal saline. Cisplatin was used to induce the drug toxin-associated acute kidney injury. During modeling, each model group was intraperitoneally injected with cisplatin at 20 mg/kg, and the control group was intraperitoneally injected with the same volume of normal saline. Immediately after modeling, the mice were put back into the mouse metabolic cages for observation, during which the weight, food intake, water intake and urine output of the mice were measured (see FIG. 37 for the results). The mice were sacrificed 72 hours later for sampling, and urine was collected. […] Then, the serum creatinine in the mice was determined by using the creatinine assay kit from Nanjing Jiancheng, with the results shown in FIG. 36. During sampling, the kidneys on both sides were isolated, the cortex and inner medulla of each kidney were isolated, and the cortex was stored in trizol. When in use, mRNAs in the cortex were extracted using the trizol method, and the mRNA expressions of AKI biomarkers (KIM-1 and NGAL, with the results shown in FIG. 38) were detected by the Qpcr method. A tissue lysis buffer was added to homogenize the kidneys by ultrasound, the total protein was then extracted, and the inflammatory factors (p-NFκB/NFκB and IL-1β) in the renal cortex tissues were detected by western blotting. The experimental data were statistically analyzed by one-way ANOVA.

[4] = three doses 0.01, 0.05, 0.1 g/kg/day, vs I/R model group
[5] = 0.1 g/kg/day, vs cisplatin model group

## alginate disaccharide sodium salt [AOS2]
[1]
  level of serum creatinine: decreased significantly and could basically return to a normal level
  gene expressions of inflammatory factors (IL-1β, IL-18, TNF-α, MCP-1): significantly reduced the production of inflammatory factors
  mRNA levels of Kim-1 and NGAL in kidney tissues: significantly reduced
  protein expressions of renal inflammatory factors (TLR4, p-NFκB/NFκB, pro-IL-1β/IL-1β): significantly reduced the production of the inflammatory factors
[2]; 0.1 g/kg/day
  level of serum creatinine: basically return to a normal level
[2]; [4]
  level of serum creatinine: decreased significantly
  24-hour urine output: decreased somewhat
[2]; vs I/R model group
  mRNA levels of Kim-1 and NGAL in kidney tissues: significantly reduced the expressions of both markers
[2]
  inflammatory factors in kidney tissues (TLR4, p-NFκB/NFκB, pro-IL-1β/IL-1β): reduced the production of inflammatory factors
[3]; [5]
  expressions of inflammatory factors: decreased significantly
  level of serum creatinine: decreased significantly
  levels of kidney injury factors (KIM-1 and NGAL): decreased significantly

## alginate tetrasaccharide sodium salt [AOS4]
[1]
  level of serum creatinine: significantly reduced the serum creatinine
  gene expressions of inflammatory factors (IL-1β, IL-18, TNF-α, MCP-1): significantly reduced
  mRNA levels of Kim-1 and NGAL in kidney tissues: significantly reduced
  protein expressions of renal inflammatory factors (TLR4, p-NFκB/NFκB, pro-IL-1β/IL-1β): significantly inhibited the inflammatory responses of the kidneys
[2]; 0.1 g/kg/day
  24-hour urine output: obviously better than that of the mixed saccharides
  level of serum creatinine: restore to a normal level
[2]; [4]
  level of serum creatinine: decreased significantly
  24-hour urine output: somewhat reduced
[2]; vs I/R model group
  mRNA levels of Kim-1 and NGAL in kidney tissues: significantly reduce both markers
[2]
  inflammatory factors in kidney tissues (TLR4, p-NFκB/NFκB, pro-IL-1β/IL-1β): significantly reduce the production of inflammatory factors
[3]; [5]
  expressions of inflammatory factors: decreased significantly
  level of serum creatinine: decreased significantly
  levels of kidney injury factors (KIM-1 and NGAL): decreased significantly

## alginate trisaccharide sodium salt [AOS3]
[1]
  level of serum creatinine: decreased significantly and could basically return to a normal level
  gene expressions of inflammatory factors (IL-1β, IL-18, TNF-α, MCP-1): significantly reduced the production of inflammatory factors
  mRNA levels of Kim-1 and NGAL in kidney tissues: significantly reduced
  protein expressions of renal inflammatory factors (TLR4, p-NFκB/NFκB, pro-IL-1β/IL-1β): significantly reduced the production of the inflammatory factors
[1]; HE staining, LPS+AOS3 group
  renal histopathological manifestations: the glomeruli and renal tubules showed mild lesions
[2]; HE staining, 0.1 g/kg/day
  renal histopathological manifestations: the renal tubules showed mild lesions
[2]; 0.1 g/kg/day
  24-hour urine output: basically recovered to the normal level
  level of serum creatinine: basically return to a normal level
[2]; [4]
  level of serum creatinine: decreased significantly
  24-hour urine output: somewhat decreased
[2]; vs I/R model group
  mRNA levels of Kim-1 and NGAL in kidney tissues: significantly reduced the expressions of both markers
[2]
  inflammatory factors in kidney tissues (TLR4, p-NFκB/NFκB, pro-IL-1β/IL-1β): reduce the production of inflammatory factors
[3]; [5]
  expressions of inflammatory factors: decreased significantly
  level of serum creatinine: decreased significantly
  levels of kidney injury factors (KIM-1 and NGAL): decreased significantly
[3]; C57BL/J6 mice, cisplatin 20 mg/kg i.p., intragastric 0.05, 0.1, 0.2 g/kg/day, 72 h
  level of serum creatinine: decreased significantly and could basically return to a normal level
[3]; renal cortex, Qpcr, vs cisplatin model group
  mRNA levels of Kim-1 and NGAL in kidney tissues: significantly reduced
[3]; renal cortex, western blotting, vs cisplatin model group
  protein expressions of renal inflammatory factors (TLR4, p-NFκB/NFκB, IL-1β): significantly reduced the production of the inflammatory factors
[3]; three doses 0.05, 0.1, 0.2 g/kg/day, 24 h to 72 h, dose dependent
  urine output: first somewhat decreased and then became normal
